# Results published in US11629171B2, “Beta-hairpin peptidomimetics” (POLYPHOR AG, priority 2017, dated 2023).
# Where a SMILES comes first, the peptide text is derived from it. Bridges are numbered along the chain shown (N, C = ends). Roman numbers before positions name the chains, in order. [ ]: non-standard residue; d: D form. Thr(ol) = C[C@@H](O)[C@H](N)CO; Tle = CC(C)(C)[C@H](N)C(=O)O; Hiv = CC(C)[C@H](O)C(=O)O; dDab = NCC[C@@H](N)C(=O)O; hSer = N[C@@H](CCO)C(=O)O; Orn = NCCC[C@H](N)C(=O)O; Dab = NCC[C@H](N)C(=O)O; Nva = CCC[C@H](N)C(=O)O; Abu = CC[C@H](N)C(=O)O; Dap = NC[C@H](N)C(=O)O
# How the values were obtained:
# Type in all cases: cell-based
# [1] = test system: Escherichia coli 926415; conditions: 926415
# Procedure, shortened: (§1)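 Broth microdilution per CLSI; MH-II (cation-adjusted) + 0.002% P-80 final; ~10^6 CFU/mL inoculum; 2-fold peptide series; 35° C, 18-20 h; MIC = no visible growth, μg/mL.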
# [2] = test system: Enterobacter cloacae 848840; conditions: 848840
# Procedure, shortened: as §1
# [3] = test system: Klebsiella pneumoniae 968733; conditions: 968733
# Procedure, shortened: as §1
# [4] = test system: Acinetobacter baumannii DSM 30008; conditions: DSM 30008
# Procedure, shortened: as §1
# [5] = test system: Klebsiella pneumoniae SSI #3010; conditions: SSI #3010
# Procedure, shortened: as §1
# [6] = test system: Escherichia coli ATCC 25922; conditions: ATCC 25922
# Procedure, shortened: as §1
# [7] = test system: Pseudomonas aeruginosa ATCC 27853; conditions: ATCC 27853
# Procedure, shortened: as §1
# [8] = test system: Acinetobacter baumannii 872842; conditions: 872842
# Procedure, shortened: as §1
# [9] = test system: human red blood cells (hRBC); assay: Hemolysis; conditions: red cells of human, 1 h, 200
# Procedure, shortened: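 Percent lysis of human red cells was derived from OD540 of the supernatant, referenced to 2% Triton X-100, after a 1 h, 37° C incubation of 20% (v/v) cells with 200 μg/mL peptide.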
Structure (SMILES),MIC [1] [µg/mL],MIC [2] [µg/mL],MIC [3] [µg/mL],MIC [4] [µg/mL],MIC [5] [µg/mL],MIC [6] [µg/mL],MIC [7] [µg/mL],MIC [8] [µg/mL],Hemolysis at 200 μg/mL [9] [%]
CCC[C@@H]1NC(=O)[C@H](CO)NC(=O)[C@H](Cc2c[nH]c3ccccc23)NC(=O)[C@H](CCN)NC(=O)[C@@H](CCN)NC(=O)[C@H](CCC(=O)N[C@@H](CCN)C(=O)N[C@H](C(=O)N[C@@H](CN)C(=O)N[C@H]2CCNC(=O)[C@H]([C@@H](C)O)NC(=O)[C@H](CCN)NC(=O)[C@H](CCN)NC(=O)[C@H](CC(C)C)NC(=O)[C@@H](CC(C)C)NC(=O)[C@H](CCN)NC2=O)[C@@H](C)O)NC(=O)[C@H](CO)NC(=O)[C@H](Cc2ccc(O)cc2)NC(=O)[C@@H](NC(=O)[C@@H](NC(C)=O)C(C)C)CSSC[C@@H](C(=O)N[C@@H](CO)C(N)=O)NC1=O [Ex. 264] (I: Ac-VCYSE[dDab][Dab]WS[Nva]CS-NH2 / II: [Dab]T[Dap][Dab][Dab][dL]L[Dab][Dab]T; disulfide I:2-I:11; amide I:5-II:N; lactam II:4-II:C),0.125,0.5,0.125,0.0625,0.125,0.03125,0.25,0.0625,<1
CC[C@@H]1NC(=O)[C@@H](CC(C)C)NC(=O)[C@H](CCN)NC(=O)[C@@H](NC(=O)[C@H](CN)NC(=O)[C@@H](NC(=O)[C@H](CCN)NC(=O)CC[C@@H]2NC(=O)[C@H]([C@@H](C)O)NC(=O)[C@H](Cc3ccc(O)cc3)NC(=O)[C@@H](NC(=O)[C@@H](NC(C)=O)C(C)C)CSSC[C@@H](C(=O)N[C@@H](CO)C(N)=O)NC(=O)[C@H](C(C)(C)C)NC(=O)[C@H](CO)NC(=O)[C@H](Cc3c[nH]c4ccccc34)NC(=O)[C@H](CCN)NC(=O)[C@@H](CCN)NC2=O)[C@@H](C)O)CCNC(=O)[C@H]([C@@H](C)O)NC(=O)[C@H](CCN)NC(=O)[C@H](CCN)NC1=O [Ex. 255] (I: Ac-VCYTE[dDab][Dab]WS[Tle]CS-NH2 / II: [Dab]T[Dap][Dab][Dab][dL][Abu][Dab][Dab]T; disulfide I:2-I:11; amide I:5-II:N; lactam II:4-II:C),0.0625,0.0625,0.25,0.03125,0.03125,0.0625,0.0625,0.125,1
CC(=O)N[C@H](C(=O)N[C@H]1CSSC[C@@H](C(=O)N[C@@H](CO)C(N)=O)NC(=O)[C@H](C(C)C)NC(=O)[C@H](CCC(=O)O)NC(=O)[C@H](Cc2c[nH]c3ccccc23)NC(=O)[C@H](CO)NC(=O)[C@@H](CCN)NC(=O)[C@H](CCC(=O)N[C@@H](CCN)C(=O)N[C@H](C(=O)N[C@@H](CN)C(=O)N[C@H]2CCNC(=O)[C@H]([C@@H](C)O)NC(=O)[C@H](CCN)NC(=O)[C@H](CCN)NC(=O)[C@H](CC(C)C)NC(=O)[C@@H](CC(C)C)NC(=O)[C@H](CCN)NC2=O)[C@@H](C)O)NC(=O)[C@H](CCCCN)NC(=O)[C@H](Cc2ccc(O)cc2)NC1=O)C(C)C [Ex. 151] (I: Ac-VCYKE[dDab]SWEVCS-NH2 / II: [Dab]T[Dap][Dab][Dab][dL]L[Dab][Dab]T; disulfide I:2-I:11; amide I:5-II:N; lactam II:4-II:C),0.5,0.125,1,0.0625,0.0625,0.03125,0.125,0.25,<1
CC(=O)N[C@H](C(=O)N[C@H]1CSSC[C@@H](C(=O)N[C@H](C(N)=O)[C@@H](C)O)NC(=O)[C@H](C(C)(C)C)NC(=O)[C@H](CO)NC(=O)[C@H](Cc2c[nH]c3ccccc23)NC(=O)[C@H](CCN)NC(=O)[C@@H](CCN)NC(=O)[C@H](CCC(=O)N[C@@H](CCN)C(=O)N[C@H](C(=O)N[C@@H](CN)C(=O)N[C@H]2CCNC(=O)[C@H]([C@@H](C)O)NC(=O)[C@H](CCN)NC(=O)[C@H](CCN)NC(=O)[C@H]([C@@H](C)O)NC(=O)[C@@H](CC(C)C)NC(=O)[C@H](CCN)NC2=O)[C@@H](C)O)NC(=O)[C@H]([C@@H](C)O)NC(=O)[C@H](Cc2ccc(O)cc2)NC1=O)C(C)C [Ex. 263] (I: Ac-VCYTE[dDab][Dab]WS[Tle]CT-NH2 / II: [Dab]T[Dap][Dab][Dab][dL]T[Dab][Dab]T; disulfide I:2-I:11; amide I:5-II:N; lactam II:4-II:C),0.125,0.125,0.25,0.03125,0.03125,0.03125,0.125,0.0625,1

# Further lines, with some results ahead:
MIC [1] [µg/mL],MIC [2] [µg/mL],MIC [3] [µg/mL],MIC [4] [µg/mL],MIC [5] [µg/mL],MIC [6] [µg/mL],MIC [7] [µg/mL],MIC [8] [µg/mL],Structure (SMILES),Hemolysis at 200 μg/mL [9] [%]
0.125,0.125,0.25,0.0625,0.125,0.03125,0.125,0.125,CC(=O)N[C@H](C(=O)N[C@H]1CSSC[C@@H](C(=O)N[C@@H](CO)C(N)=O)NC(=O)[C@H](C(C)(C)C)NC(=O)[C@H](CCC(=O)O)NC(=O)[C@H](Cc2c[nH]c3ccccc23)NC(=O)[C@H](CCO)NC(=O)[C@@H](CCN)NC(=O)[C@H](CCC(=O)N[C@@H](CCN)C(=O)N[C@H](C(=O)N[C@@H](CN)C(=O)N[C@H]2CCNC(=O)[C@H]([C@@H](C)O)NC(=O)[C@H](CCN)NC(=O)[C@H](CCN)NC(=O)[C@H](CC(C)C)NC(=O)[C@@H](CC(C)C)NC(=O)[C@H](CCN)NC2=O)[C@@H](C)O)NC(=O)[C@H](CCN)NC(=O)[C@H](Cc2ccc(O)cc2)NC1=O)C(C)C [Ex. 156] (I: Ac-VCY[Dab]E[dDab][hSer]WE[Tle]CS-NH2 / II: [Dab]T[Dap][Dab][Dab][dL]L[Dab][Dab]T; disulfide I:2-I:11; amide I:5-II:N; lactam II:4-II:C),<1
0.0625,0.125,0.125,0.0625,0.0625,0.0625,0.125,0.0625,CC(C)C[C@@H]1NC(=O)[C@@H](CC(C)C)NC(=O)[C@H](CCN)NC(=O)[C@@H](NC(=O)[C@H](CN)NC(=O)[C@@H](NC(=O)[C@H](CCN)NC(=O)CC[C@@H]2NC(=O)[C@H](CN)NC(=O)[C@H](Cc3ccc(O)cc3)NC(=O)[C@@H](NC(=O)[C@@H](O)C(C)C)CSSC[C@@H](C(=O)N[C@H](CO)[C@@H](C)O)NC(=O)[C@H](C(C)(C)C)NC(=O)[C@H](CO)NC(=O)[C@H](Cc3c[nH]c4ccccc34)NC(=O)[C@H](CCO)NC(=O)[C@@H](CCN)NC2=O)[C@@H](C)O)CCNC(=O)[C@H]([C@@H](C)O)NC(=O)[C@H](CCN)NC(=O)[C@H](CCN)NC1=O [Ex. 112] (I: H-[Hiv]CY[Dap]E[dDab][hSer]WS[Tle]C[Thr(ol)] / II: [Dab]T[Dap][Dab][Dab][dL]L[Dab][Dab]T; disulfide I:2-I:11; amide I:5-II:N; lactam II:4-II:C),<1
1,0.25,1,0.0625,0.25,0.0625,0.5,0.125,"CC(=O)N[C@H](C(=O)N[C@H]1CCCNC(=O)[C@@H](C(C)C)NC(=O)[C@H](C(C)(C)C)NC(=O)[C@H](CO)NC(=O)[C@H](Cc2c[nH]c3ccccc23)NC(=O)[C@H](CCO)NC(=O)[C@@H](CCN)NC(=O)[C@H](CCC(=O)N[C@@H](CCN)C(=O)N[C@H](C(=O)N[C@@H](CN)C(=O)N[C@H]2CCNC(=O)[C@H]([C@@H](C)O)NC(=O)[C@H](CCN)NC(=O)[C@H](CCN)NC(=O)[C@H](CC(C)C)NC(=O)[C@@H](CC(C)C)NC(=O)[C@H](CCN)NC2=O)[C@@H](C)O)NC(=O)[C@H](CO)NC(=O)[C@H](Cc2ccc(O)cc2)NC1=O)C(C)C [Ex. 27] (I: Ac-V[Orn]YSE[dDab][hSer]WS[Tle][dV] / II: [Dab]T[Dap][Dab][Dab][dL]L[Dab][Dab]T; lactam I:2-I:C, II:4-II:C; amide I:5-II:N)",<1
0.5,4,0.5,0.125,0.25,0.125,0.125,4,CC(=O)N[C@H](C(=O)N[C@H]1CSSC[C@@H](C(N)=O)NC(=O)[C@H](C(C)C)NC(=O)[C@H](CCO)NC(=O)[C@H](Cc2c[nH]c3ccccc23)NC(=O)[C@H](CCO)NC(=O)[C@@H](CCN)NC(=O)[C@H](CCC(=O)N[C@@H](CCN)C(=O)N[C@H](C(=O)N[C@@H](CCN)C(=O)N[C@H]2CCNC(=O)[C@H]([C@@H](C)O)NC(=O)[C@H](CCN)NC(=O)[C@H](CCN)NC(=O)[C@H](CC(C)C)NC(=O)[C@@H](CC(C)C)NC(=O)[C@H](CCN)NC2=O)[C@@H](C)O)NC(=O)[C@H](CCN)NC(=O)[C@H](Cc2ccc(O)cc2)NC1=O)C(C)C [Example 6] (I: Ac-VCY[Dab]E[dDab][hSer]W[hSer]VC-NH2 / II: [Dab]T[Dab][Dab][Dab][dL]L[Dab][Dab]T; disulfide I:2-I:11; amide I:5-II:N; lactam II:4-II:C),2
